{"source": "patent US7419780B2", "about": "“Methods and assays for screening protein targets” (The Trustees of Columbia University in the City of New York, priority 2000, dated 2008)", "tested_on": "S. cerevisiae strain FY250", "data": [{"smiles": "C[C@@H]1C[C@H]2[C@@H]3CCC4=CC(=O)C=C[C@]4(C)[C@@]3(F)[C@@H](O)C[C@]2(C)[C@@]1(O)C(=O)CO", "note": "[DEX, Dexamethasone]", "values": [{"measurement": "toxicity (impaired cell growth on plate)", "value": "neither DEX nor GR are toxic"}]}]}
